The target in data set [1] is T1, human TLR9 (Homo sapiens, UniProt Q9NR96).
T1 sequence (Q9NR96 26-1032): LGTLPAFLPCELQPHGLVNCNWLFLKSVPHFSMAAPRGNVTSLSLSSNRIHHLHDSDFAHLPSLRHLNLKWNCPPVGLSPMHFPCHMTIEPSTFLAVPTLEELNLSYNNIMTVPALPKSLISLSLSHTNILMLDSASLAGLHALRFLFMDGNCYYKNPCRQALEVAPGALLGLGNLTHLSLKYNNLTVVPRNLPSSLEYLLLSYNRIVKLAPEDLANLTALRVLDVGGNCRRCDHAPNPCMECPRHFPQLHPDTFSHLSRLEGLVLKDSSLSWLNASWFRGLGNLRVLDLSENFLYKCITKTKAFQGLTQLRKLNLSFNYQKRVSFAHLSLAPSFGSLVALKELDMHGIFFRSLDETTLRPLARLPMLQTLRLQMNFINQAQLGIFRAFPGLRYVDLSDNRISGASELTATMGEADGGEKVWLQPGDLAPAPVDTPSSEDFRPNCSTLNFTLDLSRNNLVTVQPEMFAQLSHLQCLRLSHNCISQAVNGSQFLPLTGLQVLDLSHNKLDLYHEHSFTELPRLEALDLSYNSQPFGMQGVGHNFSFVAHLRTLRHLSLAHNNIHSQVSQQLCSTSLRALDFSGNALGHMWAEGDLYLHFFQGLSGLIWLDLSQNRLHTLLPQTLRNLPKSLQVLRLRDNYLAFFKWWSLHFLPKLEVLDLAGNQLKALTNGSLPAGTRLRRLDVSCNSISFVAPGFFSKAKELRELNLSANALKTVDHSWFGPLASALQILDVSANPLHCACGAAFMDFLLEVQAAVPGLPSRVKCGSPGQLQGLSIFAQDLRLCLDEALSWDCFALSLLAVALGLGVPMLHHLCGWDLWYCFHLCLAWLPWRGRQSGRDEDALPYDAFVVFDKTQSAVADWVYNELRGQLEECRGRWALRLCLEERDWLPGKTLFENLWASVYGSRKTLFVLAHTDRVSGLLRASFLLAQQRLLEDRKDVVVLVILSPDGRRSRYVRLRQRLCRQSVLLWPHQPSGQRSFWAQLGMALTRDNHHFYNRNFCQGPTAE
Description: HEK293-Blue-hTLR-9 cells assay. The format is cell-based. The conditions noted are these: HEK293-Blue-hTLR9 cells, ODN2006 stimulation, 20 hrs, SEAP reporter; read-out: HEK/hTLR9 IC50. In short, it runs like this: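 Antagonist mode in HEK293-Blue hTLR9 reporter cells (SEAP under NF-κB/AP-1 sites), stimulated with ODN2006 added from a 20 uM solution. Serially diluted compound (1% DMSO final) was incubated 20 hrs at 37° C. Supernatant SEAP was developed with QUANTI-Blue for 2 h at 37° C and read at 620˜655 nm.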

Data set [2] can be described thus: Human microsomal stability assay. It is filed as in vitro ADME. The conditions noted are these: human liver microsomes 0.5 mg/mL, 37° C., pH 7.4, NADPH regenerating system, 0-30 minutes. In a few lines: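 Human liver microsomes (0.5 mg/mL) with […] compound in 100 mM potassium phosphate, pH 7.4, 37° C; reaction started with NADPH regenerating system after 10 min preincubation. Parent remaining at 0–30 min quantified by LC-MS/MS; clearance binned low (<7.0), medium (7.0-16.2) or high (16.2-23.2) mL/min/kg.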

Structures are written as SMILES.

`C[C@@H]1CN(c2ccc(C#N)c3ncccc23)C[C@@H]2c3ccc(NCCN4CC[C@H](O)C4)cc3CN12` [Example 68, 5-[(4R,10bS)-8-[2-[(3S)-3-hydroxypyrrolidin-1-yl]ethylamino]-4-methyl-3,4,6,10b-tetrahydro-1H-pyrazino[2,1-a]isoindol-2-yl]quinoline-8-carbonitrile]: in data set [1], the IC50 turned out to be 73.5 nM. In addition, the “CL (h)” value in data set [2] was found to be 7.9 mL/min/kg.

For the molecule `C[C@@H]1CN(c2ccc(C#N)c3ncccc23)C[C@@H]2c3ccc(C(=O)N4CCC(C)(N)CC4)cc3CN12` [Example 88, 5-[(4R,10bS)-8-(4-amino-4-methyl-piperidine-1-carbonyl)-4-methyl-3,4,6,10b-tetrahydro-1H-pyrazino[2,1-a]isoindol-2-yl]quinoline-8-carbonitrile], the IC50 in data set [1] is 165 nM. Moreover, the “CL (h)” value in data set [2] is 6.2 mL/min/kg.

Take `CO[C@H]1CNC[C@H]1Nc1ccc2c(c1)CN1[C@H](C)CN(c3ccc(C#N)c4ncccc34)C[C@H]21` [Example 61, 5-[(4R,10bS)-8-[[(3R,4S)-4-methoxypyrrolidin-3-yl]amino]-4-methyl-3,4,6,10b-tetrahydro-1H-pyrazino[2,1-a]isoindol-2-yl]quinoline-8-carbonitrile]: in data set [1], the IC50 came out at 93 nM. Besides, the “CL (h)” value in data set [2] is given as 7.3 mL/min/kg.

With `CO[C@@H]1CNC[C@@H]1Nc1ccc2c(c1)CN1[C@H](C)CN(c3ccc(C#N)c4ncccc34)C[C@H]21` [Example 60, 5-[(4R,10bS)-8-[[(3S,4R)-4-methoxypyrrolidin-3-yl]amino]-4-methyl-3,4,6,10b-tetrahydro-1H-pyrazino[2,1-a]isoindol-2-yl]quinoline-8-carbonitrile], the IC50 in data set [1] was 113 nM. Also, the “CL (h)” value in data set [2] is listed as 7.4 mL/min/kg.

As for `C[C@@H]1CN(c2ccc(C#N)c3ncccc23)C[C@@H]2c3cc(F)c(N4CC5CNCC(C4)O5)cc3CN12` [Example 85, 5-[(4R,10bS)-9-fluoro-4-methyl-8-(9-oxa-3,7-diazabicyclo[3.3.1]nonan-3-yl)-3,4,6,10b-tetrahydro-1H-pyrazino[2,1-a]isoindol-2-yl]quinoline-8-carbonitrile], in data set [1], the IC50 worked out at 151 nM. Moreover, the “CL (h)” value in data set [2] amounted to 7.8 mL/min/kg.

As for `CO[C@H]1CNC[C@@H]1Nc1ccc2c(c1)CN1[C@H](C)CN(c3ccc(C#N)c4ncccc34)C[C@H]21` [Example 62, 5-[(4R,10bS)-8-[[(3S,4S)-4-methoxypyrrolidin-3-yl]amino]-4-methyl-3,4,6,10b-tetrahydro-1H-pyrazino[2,1-a]isoindol-2-yl]quinoline-8-carbonitrile], the IC50 in data set [1] was found to be 84.5 nM. Moreover, the “CL (h)” value in data set [2] was found to be 7.5 mL/min/kg.

Turning to `N#Cc1ccc(N2CCN3Cc4cc(N5CCNCC5)ccc4C3C2)c2cccnc12` (stereo not drawn) [Example 3, 5-(8-piperazin-1-yl-3,4,6,10b-tetrahydro-1H-pyrazino[2,1-a]isoindol-2-yl)quinoline-8-carbonitrile], in data set [1], the IC50 amounted to 87.7 nM. Further, the “CL (h)” value in data set [2] is on record as 6.2 mL/min/kg.

Consider `C[C@@H]1CN(c2ccc(C#N)c3ncccc23)C[C@@H]2c3ccc(NCC4(F)CNC4)cc3CN12` [Example 69, 5-[(4R,10bS)-8-[(3-fluoroazetidin-3-yl)methylamino]-4-methyl-3,4,6,10b-tetrahydro-1H-pyrazino[2,1-a]isoindol-2-yl]quinoline-8-carbonitrile], for which the IC50 in data set [1] was found to be 171 nM. In addition, the “CL (h)” value in data set [2] amounted to 8.4 mL/min/kg.

In the case of `C[C@@H]1CN(c2ccc(Cl)c3ncccc23)C[C@@H]2c3ccc(N[C@H]4CNC[C@H]4F)cc3CN12` [Example 79, (4R,10b)-2-(8-chloro-5-quinolyl)-N-[(3S,4R)-4-fluoropyrrolidin-3-yl]-4-methyl-3,4,6,10b-tetrahydro-1H-pyrazino[2,1-a]isoindol-8-amine], the IC50 in data set [1] amounted to 113 nM. Further, the “CL (h)” value in data set [2] is listed as 6.2 mL/min/kg.

Consider `C[C@@H]1CN(c2ccc(C#N)c3ncccc23)C[C@@H]2c3ccc(N[C@@H]4CCCNC4)cc3CN12` [Example 65, 5-[(4R,10bS)-4-methyl-8-[[(3R)-3-piperidyl]amino]-3,4,6,10b-tetrahydro-1H-pyrazino[2,1-a]isoindol-2-yl]quinoline-8-carbonitrile], for which the IC50 in data set [1] is 95.8 nM. For the same molecule, the “CL (h)” value in data set [2] came to 6.2 mL/min/kg.

For `C[C@H]1CN(c2ccc(C#N)c3ncccc23)C[C@H]2c3ccc(N4CCNCC4)cc3CN12` [Example 2, 5-[(4S,10bR)-4-methyl-8-piperazin-1-yl-3,4,6,10b-tetrahydro-1H-pyrazino[2,1-a]isoindol-2-yl]quinoline-8-carbonitrile], the IC50 in data set [1] worked out at 125 nM. Moreover, in data set [2], the “CL (h)” value is on record as 6.8 mL/min/kg.

As for `C[C@@H]1CN(c2ccc(C#N)c3ncccc23)C[C@@H]2c3ccc(N4CCNCC4)cc3CN12` [Example 1, 5-[(4R,10bS)-4-methyl-8-piperazin-1-yl-3,4,6,10b-tetrahydro-1H-pyrazino[2,1-a]isoindol-2-yl]quinoline-8-carbonitrile], the IC50 in data set [1] came out at 106 nM. The “CL (h)” value in data set [2] turned out to be 6.8 mL/min/kg.

For `Cc1ccc(N2C[C@@H](C)N3Cc4cc(N[C@H]5CNC[C@H]5F)ccc4[C@H]3C2)c2cccnc12` [Example 75, (4R,10bS)—N-[(3S,4R)-4-fluoropyrrolidin-3-yl]-4-methyl-2-(8-methyl-5-quinolyl)-3,4,6,10b-tetrahydro-1H-pyrazino[2,1-a]isoindol-8-amine], the IC50 in data set [1] amounted to 203 nM. Also, the “CL (h)” value in data set [2] was found to be 6.2 mL/min/kg.

For the molecule `C[C@@H]1CN(c2ccc(C#N)c3ncccc23)C[C@@H]2c3cccc(NCCN4CC[C@H](O)C4)c3CN12` [Example 80, 5-[(4R,10bS)-7-[2-[(3S)-3-hydroxypyrrolidin-1-yl]ethylamino]-4-methyl-3,4,6,10b-tetrahydro-1H-pyrazino[2,1-a]isoindol-2-yl]quinoline-8-carbonitrile], the IC50 in data set [1] was 63.6 nM.

These data come from patent US12157746B2, “Tetrahydro-1H-pyrazino[2,1-a]isoindolylquinoline compounds for the treatment of autoimmune disease” (F. HOFFMANN-LA ROCHE AG, priority 2018, dated 2024).
